Laboratory results taken from patent publication US10799503B2, “Methods for the treatment of cancer” (IGNYTA, INC., priority 2016, dated 2020).

Assays:
[1] = Phase I and Phase Ib clinical studies (Example 4): treatment-related adverse events and disposition; format: in vivo, human
Protocol: Phase I and Phase Ib clinical studies were performed in which 92 total subjects were enrolled, 91 of which were treated, and of which 35 in the Phase Ib portion were determined to be molecularly evaluable and were treated.
Table 4 provides a summary of the most common, treatment-related adverse events (AEs) in all patients that were treated (n=91), expressed as a percentage of the 91 patients.

[2] = Phase I and Phase Ib clinical studies (Example 5, data cut-off Aug. 1, 2017): treatment-related adverse events and disposition; format: in vivo, human
Excerpt: The most common (>10%) treatment related AEs […].

COc1cc2ncnc(Oc3cccc(NC(=O)Nc4cc(C(C)(C)C(F)(F)F)on4)c3)c2cc1OC [N-[3-[(6,7-dimethoxy-4-quinazolinyl)oxy]phenyl]-N′-[5-(2,2,2-trifluoro-1,1-dimethylethyl)-3-isoxazolyl]-urea]
Discontinued, primary reason Death, number of subjects ([1]; 92 enrolled in Phase 1/1b): 4 n | Discontinued, primary reason Death, percent of subjects ([1]; 92 enrolled in Phase 1/1b): (4) % | ALT increase Any Grade, number of patients ([1]; human, in vivo): 6 | ALT increase Any Grade, percentage of patients ([1]; human, in vivo): (7) % | ALT increase Grade ≤ 2, number of patients ([1]; human, in vivo): 1 | ALT increase Grade ≤ 2, percentage of patients ([1]; human, in vivo): (1) % | ALT increase Grade ≥ 3, number of patients ([1]; human, in vivo): 5 | ALT increase Grade ≥ 3, percentage of patients ([1]; human, in vivo): (6) % | AST increase Any Grade, number of patients ([1]; human, in vivo): 6 | AST increase Any Grade, percentage of patients ([1]; human, in vivo): (7) % | AST increase Grade ≤ 2, percentage of patients ([1]; human, in vivo): (3) % | AST increase Grade ≥ 3, number of patients ([1]; human, in vivo): 3 | AST increase Grade ≥ 3, percentage of patients ([1]; human, in vivo): (3) % | Anemia Any Grade, number of patients ([1]; human, in vivo): 6 | Anemia Any Grade, percentage of patients ([1]; human, in vivo): (7) % | Anemia Grade ≤ 2, number of patients ([1]; human, in vivo): 5 | Anemia Grade ≤ 2, percentage of patients ([1]; human, in vivo): (6) % | Anemia Grade ≥ 3, number of patients ([1]; human, in vivo): 1 | Anemia Grade ≥ 3, percentage of patients ([1]; human, in vivo): (1) % | Decreased Appetite Any Grade, number of patients ([1]; human, in vivo): 9 | Decreased Appetite Any Grade, percentage of patients ([1]; human, in vivo): (10) % | Decreased Appetite Grade ≤ 2, number of patients ([1]; human, in vivo): 9 | Decreased Appetite Grade ≤ 2, percentage of patients ([1]; human, in vivo): (10) % | Decreased Appetite Grade ≥ 3, number of patients ([1]; human, in vivo): 0 | Diarrhea Any Grade, number of patients ([1]; human, in vivo): 18 | Diarrhea Any Grade, percentage of patients ([1]; human, in vivo): (20) % | Diarrhea Grade ≤ 2, number of patients ([1]; human, in vivo): 14 | Diarrhea Grade ≤ 2, percentage of patients ([1]; human, in vivo): (15) % | Diarrhea Grade ≥ 3, number of patients ([1]; human, in vivo): 4 | Diarrhea Grade ≥ 3, percentage of patients ([1]; human, in vivo): (4) % | Discontinued, primary reason Adverse Event, number of subjects ([1]; human, in vivo): 11 n | Discontinued, primary reason Adverse Event, percent of subjects ([1]; human, in vivo): (12) % | Dysgeusia Any Grade, number of patients ([1]; human, in vivo): 5 | Dysgeusia Any Grade, percentage of patients ([1]; human, in vivo): (6) % | Dysgeusia Grade ≤ 2, number of patients ([1]; human, in vivo): 5 | Dysgeusia Grade ≤ 2, percentage of patients ([1]; human, in vivo): (6) % | Dysgeusia Grade ≥ 3, number of patients ([1]; human, in vivo): 0 | Erythema Any Grade, number of patients ([1]; human, in vivo): 7 | Erythema Any Grade, percentage of patients ([1]; human, in vivo): (8) % | Erythema Grade ≤ 2, number of patients ([1]; human, in vivo): 7 | Erythema Grade ≤ 2, percentage of patients ([1]; human, in vivo): (8) % | Erythema Grade ≥ 3, number of patients ([1]; human, in vivo): 0 | Fatigue Any Grade, number of patients ([1]; human, in vivo): 20 | Fatigue Any Grade, percentage of patients ([1]; human, in vivo): (22) % | Fatigue Grade ≤ 2, number of patients ([1]; human, in vivo): 16 | Fatigue Grade ≤ 2, percentage of patients ([1]; human, in vivo): (18) % | Fatigue Grade ≥ 3, number of patients ([1]; human, in vivo): 4 | Fatigue Grade ≥ 3, percentage of patients ([1]; human, in vivo): (4) % | Hypokalemia Any Grade, number of patients ([1]; human, in vivo): 6 | Hypokalemia Any Grade, percentage of patients ([1]; human, in vivo): (7) % | Hypokalemia Grade ≤ 2, number of patients ([1]; human, in vivo): 6 | Hypokalemia Grade ≤ 2, percentage of patients ([1]; human, in vivo): (7) % | Hypokalemia Grade ≥ 3, number of patients ([1]; human, in vivo): 0 | Hypophosphatemia Any Grade, number of patients ([1]; human, in vivo): 13 | Hypophosphatemia Any Grade, percentage of patients ([1]; human, in vivo): (14) % | Hypophosphatemia Grade ≤ 2, number of patients ([1]; human, in vivo): 7 | Hypophosphatemia Grade ≤ 2, percentage of patients ([1]; human, in vivo): (8) % | Hypophosphatemia Grade ≥ 3, number of patients ([1]; human, in vivo): 6 | Hypophosphatemia Grade ≥ 3, percentage of patients ([1]; human, in vivo): (7) % | Muscle Spasms Any Grade, number of patients ([1]; human, in vivo): 12 | Muscle Spasms Any Grade, percentage of patients ([1]; human, in vivo): (13) % | Muscle Spasms Grade ≤ 2, number of patients ([1]; human, in vivo): 12 | Muscle Spasms Grade ≤ 2, percentage of patients ([1]; human, in vivo): (13) % | Muscle Spasms Grade ≥ 3, number of patients ([1]; human, in vivo): 0 | Nausea Any Grade, number of patients ([1]; human, in vivo): 16 | Nausea Any Grade, percentage of patients ([1]; human, in vivo): (18) % | Nausea Grade ≤ 2, number of patients ([1]; human, in vivo): 16 | Nausea Grade ≤ 2, percentage of patients ([1]; human, in vivo): (18) % | Nausea Grade ≥ 3, number of patients ([1]; human, in vivo): 0 | Rash* Any Grade, number of patients ([1]; human, in vivo): 28 | Rash* Any Grade, percentage of patients ([1]; human, in vivo): (31) % | Rash* Grade ≤ 2, number of patients ([1]; human, in vivo): 20 | Rash* Grade ≤ 2, percentage of patients ([1]; human, in vivo): (22) % | Rash* Grade ≥ 3, number of patients ([1]; human, in vivo): 8 | Rash* Grade ≥ 3, percentage of patients ([1]; human, in vivo): (9) % | Vomiting Any Grade, number of patients ([1]; human, in vivo): 13 | Vomiting Any Grade, percentage of patients ([1]; human, in vivo): (14) % | Vomiting Grade ≤ 2, number of patients ([1]; human, in vivo): 13 | Vomiting Grade ≤ 2, percentage of patients ([1]; human, in vivo): (14) % | Vomiting Grade ≥ 3, number of patients ([1]; human, in vivo): 0 | Number of patients that discontinued due to death ([2]; Phase 1 (N = 55)): 3 n | Number of patients that discontinued due to death ([2]; Phase 1b Other (N = 50)): 1 n | Number of patients that discontinued due to death ([2]; Phase 1b RET+ (N = 47)): 0 n | Number of patients that discontinued due to death ([2]; Total Subjects (N = 152)): 4 n | Blood Bilirubin Increased ≤G2 ([2]; human, in vivo): 6 (4) | Blood Bilirubin Increased ≥G3 ([2]; human, in vivo): 1 (1) | Decreased Appetite ≤G2 ([2]; human, in vivo): 17 (11) | Decreased Appetite ≥G3 ([2]; human, in vivo): 0 (0) | Diarrhea ≤G2 ([2]; human, in vivo): 28 (18) | Diarrhea ≥G3 ([2]; human, in vivo): 6 (4) | Elevated Alanine Aminotransferase ≤G2 ([2]; human, in vivo): 4 (3) | Elevated Alanine Aminotransferase ≥G3 ([2]; human, in vivo): 11 (7) | Elevated Aspartate Aminotransferase ≤G2 ([2]; human, in vivo): 9 (6) | Elevated Aspartate Aminotransferase ≥G3 ([2]; human, in vivo): 6 (4) | Fatigue ≤G2 ([2]; human, in vivo): 27 (18) | Fatigue ≥G3 ([2]; human, in vivo): 5 (3) | Hypophosphatemia ≤G2 ([2]; human, in vivo): 13 (9) | Hypophosphatemia ≥G3 ([2]; human, in vivo): 11 (7) | Muscle Spasms ≤G2 ([2]; human, in vivo): 19 (13) | Muscle Spasms ≥G3 ([2]; human, in vivo): 0 (0) | Nausea ≤G2 ([2]; human, in vivo): 21 (14) | Nausea ≥G3 ([2]; human, in vivo): 0 (0) | Rash* ≤G2 ([2]; human, in vivo): 37 (24) | Rash* ≥G3 ([2]; human, in vivo): 15 (10) | Vomiting ≤G2 ([2]; human, in vivo): 15 (10) | Vomiting ≥G3 ([2]; human, in vivo): 0 (0) | number of treatment-related serious adverse events (SAEs) ([2]; human, in vivo): 19 | patients who experienced treatment-related serious adverse events (SAEs) ([2]; human, in vivo): 9% | resolution of treatment-related serious adverse events ([2]; human, in vivo): all except 1 resolved by dose modification or discontinuation | safety profile ([2]; human, in vivo): manageable safety profile | severity and reversibility of the majority of treatment-related adverse events ([2]; human, in vivo): <Grade 2 and were reversible with dose modifications | toxicities commonly associated with VEGFR inhibition (hypertension, hypothyroidism, proteinuria, neurotoxicity) ([2]; human, in vivo): rarely observed
